The values below are quoted from earlier work in US9085569B2, “1,2,4-oxadiazol derivatives, process for their preparation and use thereof as intermediates in the preparation of indolic alkaloids” (CONSIGLIO NAZIONALE DELLE RICERCHE, priority 2012, dated 2015).

For this data set, the system named is HeLa cell line (uterine cervix cancer). The settings on record: background statement.

As to `N=C(N)NCCCCCNc1noc(Cc2c[nH]c3ccccc23)n1` [phidianidine B], the cytotoxic activity entry is given as “high cytotoxic activity”.
